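Test compounds were applied to cells in 96-well plates for 48 hours at 5 doses. At the GI50, growth is halved.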 The source made the active and inactive calls. Rule as the data show it: active = GI50 up to about 1.1 µM and inactive = higher.
Legend:
Assay in all cases: NCI anticancer screen, dose series, 48 h
NCI-H23 = system: NCI-H23
SF-295 = system: SF-295
SK-MEL-28 = system: SK-MEL-28
NCI-H226 = system: NCI-H226
HT-29 = system: HT-29
SK-OV-3 = system: SK-OV-3
PC-3 = system: PC-3
KM-20L2 = system: KM-20L2
T47D = system: T47D
NCI/ADR-RES = system: NCI/ADR-RES
Hs-578T = system: Hs-578T
SR = system: SR
SNB-19 = system: SNB-19
HCT-116 = system: HCT-116
786-0 = system: 786-0
UO-31 = system: UO-31
OVCAR-3 = system: OVCAR-3
OVCAR-8 = system: OVCAR-8
NCI-H460 = system: NCI-H460
UACC-62 = system: UACC-62

C/C(=N\NC(=[Se])N(C)C)c1ccccn1
GI50 (NCI-H23): < 10 nM (active)
GI50 (SF-295): < 10 nM (active)
GI50 (SK-MEL-28): 1.91 µM (inactive)
GI50 (NCI-H226): 97.3 nM (active)
GI50 (HT-29): < 10 nM (active)
GI50 (SK-OV-3): 21.6 nM (active)
GI50 (PC-3): < 10 nM (active)
GI50 (KM-20L2): < 10 nM (active)
GI50 (T47D): 36.4 nM (active)
GI50 (NCI/ADR-RES): < 10 nM (active)
GI50 (Hs-578T): 208 nM (active)
GI50 (SR): < 10 nM (active)
GI50 (SNB-19): 1.37 µM (inactive)
GI50 (HCT-116): < 10 nM (active)
GI50 (786-0): 55.9 nM (active)
GI50 (UO-31): 457 nM (active)
GI50 (OVCAR-3): 106 nM (active)
GI50 (OVCAR-8): < 10 nM (active)
GI50 (NCI-H460): < 10 nM (active)
GI50 (UACC-62): < 10 nM (active)

Reference: ChEMBL document CHEMBL1201862, “PubChem BioAssay data set” (2004)
